The values below are quoted from earlier work in patent US20150111372A1 (priority 2013, published 2015).

Where two headings read alike, the source gives them in different places.

One series has as its system livers of chickens. The conditions noted are these: in vivo.

In the case of `O=C(O)CNCP(=O)(O)O` [N-(phosphonomethyl)glycine), N-(phosphonomethyl)glycine], the “Solubility, Water” value by setting is: (pH 2) “pH 2: 10 g/L”; (pH 5) “pH 5-9: 1 kg/L”. Regarding `O=[N+]([O-])c1cc([As](=O)(O)O)ccc1O` [Roxarsone, 4-Hydroxy-3-nitrobenzenearsonic acid], the “levels of arsenic in the livers of chickens” value in the series on livers of chickens is “elevated (but 'very low') levels”.
